Assays:
WEE1 kinase = biological target: T1, WEE1 kinase (Homo sapiens, UniProt P30291); test: WEE1 kinase binding assay (LanthaScreen EU); settings: WEE1 kinase 20 nM, Kinase Tracer 178 100 nM, 23° C. for 60 min, read-out: WEEI (IC50)
T1 construct: purchased Carna bioscience
Method: 1. Assay for WEE1 Kinase Inhibitory Activity (IC50) on Compounds
The WEE1 kinase binding assay was established and optimized with LanthaScreen EU for the determination of the activity of compounds. 10 mM compounds were subjected to ten-fold gradient dilution in 100% DMSO (6 concentrations in total), 5 μL of diluent from each concentration was added to 45 μL of reaction buffer (50 mM HEPES (4-hydroxyethylpiperazine ethanesulfonic acid), pH 7.5, 10 mM MgCl2 (magnesium chloride), 1 mM EGTA (ethylene glycol diethyl ether diamine tetraacetic acid), 0.01% Brij-35 (polyoxyethylene lauryl ether)) for blending. On this basis, 2 μL diluent from each concentration was added to 48 μL of reaction buffer for blending as a 4*compound (final concentrations of 1000, 100, 10, 1, 0.1, 0 nM) for later use. Reaction buffer was used to formulate 4*WEE1 kinase (purchased from Carna bioscience, a final concentration of 20 nM), 4*LanthaScreen EU-anti-GST Antibody (purchased from Invitrogen, PV5594, a fuel concentration of 2 nM), and 4*Kinase Tracer 178 (purchased from Invitrogen, PV5593, a final concentration of 100 nM). 2.5 μL of 4*compound was added to a 384-well plate (OptiPlate-384, purchased from PerkinElmer), followed by adding 2.5 μL of 4*WEE1 kinase, standing for 5 min at room temperature. Then 2.5 μL of 4*LanthaScreen EU-anti-GST Antibody was added followed by 2.5 μL of 4*Kinase Tracer 178. The reaction was started by centrifugation (a total reaction volume of 10 μL). The 384-well plate was wrapped with tin foil paper and placed in an incubator at 23° C. for 60 min. Fluorescence values (excitation at 320 nm, detecting emitted light at 665 nm and 615 nm, and a ratio of the two as enzyme activity) were read on Envision (purchased from PerkinElmer). The enzyme activity of each compound was measured at 6 concentrations, and the IC50 value of the compound was calculated using GraFit6.0 software (Erithacus Software).
The aforementioned “*” refers to multiplying, representing multiples.

[1] = system: Human non-small cell lung cancer cells NCI-H1299; test: NCI-H1299 cell proliferation inhibition (CellTiter-Glo); format: cell-based; settings: cultured 3 days, table head NCI-H1975, method NCI-H1299
Method: 2. Determination of Cell Proliferation Activity of Compounds:
NCI-H1299 cell proliferation inhibition screening method was established using CellTiter-fib detection reagent from Promega.
Human non-small cell lung cancer cells NCI-H1299 were cultured in 25 cm^2 or 75 cm^2 plastic tissue culture flasks (Corning) filled with DMEM (Gibco) medium supplemented with 10% fetal bovine serum (Hyclone) under 37° C., 95% air, and 5% CO2, and subcultured 2-3 times a week.
Cells were seeded at 1000 cells/well in a 96-well cell culture plate (Corning), 195 μL/well, and cultured under 37° C., 95% air, and 5% CO2. The next day test compound was added: 10 mM compounds (dissolved in DMSO) were subjected to 3-fold gradient dilution in DMSO, 2 μL of diluent from each concentration was added to 48 μL of serum-fret medium, and finally 5 μL of the diluted compound was added to the plate seeded with cells. The final concentration of DMSO in the cell culture was 0.1% and the foul concentration of the test compound was 0.3 nM-10 μM. The cells were cultured at 37° C. for 3 days.

T1 sequence (P30291 whole entry): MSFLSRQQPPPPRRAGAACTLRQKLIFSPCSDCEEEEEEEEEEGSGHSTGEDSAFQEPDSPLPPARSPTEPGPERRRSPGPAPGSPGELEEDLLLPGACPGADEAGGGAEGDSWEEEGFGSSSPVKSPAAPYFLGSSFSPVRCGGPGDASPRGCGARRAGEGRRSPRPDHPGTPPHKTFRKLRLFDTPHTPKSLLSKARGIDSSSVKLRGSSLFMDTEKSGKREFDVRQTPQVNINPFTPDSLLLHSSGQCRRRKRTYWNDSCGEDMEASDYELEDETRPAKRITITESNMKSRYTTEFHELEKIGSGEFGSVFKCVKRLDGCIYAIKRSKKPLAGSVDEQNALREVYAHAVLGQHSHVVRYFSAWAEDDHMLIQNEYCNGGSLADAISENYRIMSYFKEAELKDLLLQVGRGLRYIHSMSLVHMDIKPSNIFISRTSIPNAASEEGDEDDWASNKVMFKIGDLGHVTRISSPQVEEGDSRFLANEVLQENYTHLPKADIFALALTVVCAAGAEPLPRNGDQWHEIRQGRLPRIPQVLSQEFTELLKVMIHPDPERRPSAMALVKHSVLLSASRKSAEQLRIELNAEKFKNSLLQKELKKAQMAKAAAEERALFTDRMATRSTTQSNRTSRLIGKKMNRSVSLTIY

Row | IC50 (WEE1 kinase) [nM] | IC50 ([1]; Homo sapiens, 72 h) [nM] | IC50 [1] [nM] | Compound
1 | 0.6 |  |  | Cc1cc2cnc(Nc3ccc(N4CCN(C)CC4)cc3)nc2n1-c1cccc(C(C)(C)O)n1 [Example 145, 2-(6-(6-methyl-2-((4 (4-methylpiperazin-1-yl)phenyl)amino)-7H-pyrrolo[2,3-d]pyrimidin-7-yl)pyridin-2-yl)propan-2-ol]
2 | 0.9 | 87 |  | CCCc1cc2cnc(Nc3ccc(N4CCC(N5CCN(C)CC5)CC4)cc3)nc2n1-c1cccc(N=S(C)(C)=O)n1 [Example 136, dimethyl((6-(2-((4-(4-(4-methylpiperazin-1-yl)piperidin-1-yl)phenyl)amino)-6-propyl-7H-pyrrolo[2,3-d]pyrimidin-7-yl)pyridin-2-yl)imino)-λ^6-sulfanone]
3 | 0.68 | 74 |  | C=C(C)c1cc2cnc(Nc3ccc(N4CCN(C)CC4)cc3)nc2n1-c1cccc(N=S(C)(C)=O)n1 [Example 135, dimethyl((6-(2-((4-(4-methylpiperazin-1-yl)phenyl)amino)-6-(prop-1-en-2-yl)-7H-pyrrolo[2,3-d]pyrimidin-7-yl)pyridin-2-yl)imino)-λ^6-sulfanone]
4 | 1.18 |  |  | CS(C)(=O)=Nc1cccc(-n2c(C3CC3)c(F)c3cnc(Nc4ccc(N5C[C@H]6CC[C@@H](C5)N6)cc4)nc32)n1 [Example 80, ((6-(2-((4-((1R,5S)-3,8-diazabicyclo[3.2.1]octan-3-yl)phenyl)amino)-6-cyclopropyl-5-fluoro-7H-pyrrolo[2,3-d]pyrimidin-7-yl)pyridin-2-yl)imino)dimethyl-λ^6-sulfanone]
5 | 0.98 |  |  | CN1CCN(c2ccc(Nc3ncc4cc(C5CC5)n(-c5cccc(C(C)(C)O)n5)c4n3)cc2)CC1 [Example 55, 2-(6-(2-((4-(4-methylpiperazin-1-yl)phenyl)amino)-6-cyclopropyl-7H-pyrrolo[2,3-d]pyrimidin-7-yl)pyridin-2-yl)propan-2-ol]
6 | 0.96 |  |  | CC(C)c1cc2cnc(Nc3ccc(N4CCN(C)CC4)cc3)nc2n1-c1cccc(N=S(C)(C)=O)n1 [Example 6, ((6-(6-isopropyl-2-((4 (4-methylpiperazin-1-yl)phenyl)amino)-7H-pyrrolo[2,3-d]pyrimidin-7-yl)pyridin-2-yl)imino)dimethyl-λ^6-sulfanone]
7 | 0.3 |  | 44 | CCCc1cc2cnc(Nc3ccc(N4CCC5(CCN(C)CC5)CC4)cc3)nc2n1-c1cccc(N=S(C)(C)=O)n1 [Example 123, ((6-(6-propyl-2-((4-(9-methyl-3,9-diazaspiro[5.5]undecan-3-yl)phenyl)amino)-7H-pyrrolo[2,3-d]pyrimidin-7-yl)pyridin-2-yl)imino)dimethyl-λ^6-sulfanone]
8 | 0.61 |  |  | CS(C)(=O)=Nc1cccc(-n2c(C3CC3)c(F)c3cnc(Nc4ccc(N5CCC(N6CCOCC6)CC5)cc4)nc32)n1 [Example 35, ((6-(5-fluoro-2-((4-(4-(morpholine 4-yl)piperidin-1-yl)phenyl)amino)-6-cyclopropyl-7H-pyrrolo[2,3-d]pyrimidin-7-yl)pyridin-2-yl)imino)dimethyl-λ^6-sulfanone]
9 | 0.69 |  | 31 | CN(C)CCc1ccc(Nc2ncc3c(F)c(C4CC4)n(-c4ccnc(N=S(C)(C)=O)n4)c3n2)cc1 [Example 32, ((6-(5-fluoro-2-((4-(2-(dimethylamino)ethyl)phenyl)amino)-6-cyclopropyl-7H-pyrrolo[2,3-d]pyrimidin-7-yl)pyrimidin-2-yl)imino)dimethyl-λ^6-sulfanone]
10 | 0.48 | 53 |  | CN1CCC2(CC1)CCN(c1ccc(Nc3ncc4c(F)c(C5CC5)n(-c5cccc(N=S(C)(C)=O)n5)c4n3)cc1)CC2 [Example 126, ((6-(6-cyclopropyl-5-fluoro-2-((4-(9-methyl-3,9-diazaspiro(5.5)undecan-3-yl)phenyl)amino)-7H-pyrrolo[2,3-d]pyrimidin-7-yl)pyridin-2-yl)imino)dimethyl-λ^6-sulfanone]
11 | 0.51 | 42 |  | CN1CCN(c2ccc(Nc3ncc4cc(C5CC5)n(-c5cccc(N=S(C)(C)=O)n5)c4n3)cc2F)CC1 [Example 40, ((6-(2-(((3-fluoro-4-(4-methylpiperazin-1-yl)phenyl))amino) 6-cyclopropyl-7H-pyrrolo[2,3-d]pyrimidin-7-yl)pyridin-2-yl)imino)dimethyl-λ^6-sulfanone]
12 | 0.6 | 66 |  | Cc1cc2cnc(Nc3ccc(N4CCN(CCN(C)C)CC4)cc3)nc2n1-c1cccc(N=S(C)(C)=O)n1 [Example 151, ((6-(2-((4-(4-(2-(dimethylamino)ethyl)piperazin-1-yl)phenyl)amino)-6-methyl-7H-pyrrolo[2,3-d]pyrimidin-7-yl)pyridin-2-yl)imino)dimethyl-λ^6-sulfanone]
13 | 0.3 |  |  | COc1cc(Nc2ncc3cc(C4CC4)n(-c4cccc(N=S(C)(C)=O)n4)c3n2)ccc1N1CCN(C)CC1 [Example 38, ((6-(2-(((3-methoxy-4-(4-methylpiperazin-1-yl)phenyl))amino)-6-cyclopropyl-7H-pyrrolo[2,3-d]pyrimidin-7-yl)pyridin-2-yl)imino)dimethyl-λ^6-sulfanone]
14 | 1.12 |  |  | CCCc1cc2cnc(Nc3ccc(N4CCN(CCN(C)C)CC4)cc3)nc2n1-c1cccc(C(C)(C)O)n1 [Example 109, 2-(6-(6-propyl-2-((4-(4 (2-(dimethylamino)ethyl)piperazin-1-yl)phenyl)amino)-7H-pyrrolo[2,3-d]pyrimidin-7-yl)pyridin-2-yl)propan-2-ol]
15 | 0.59 |  |  | CCc1cc2cnc(Nc3ccc(N4CCN(C)CC4)cc3)nc2n1-c1cccc(C(C)(C)O)n1 [Example 159, 2-(6-(6-ethyl-2-((4-(4-methylpiperazin-1-yl)phenyl)amino)-7H-pyrrolo[2,3-d]pyrimidin-7-yl)pyridin-2-yl)propan-2-ol]
16 | 1 |  |  | CN(C)CCN(C)c1ccc(Nc2ncc3c(F)c(C4CC4)n(-c4cccc(N=S(C)(C)=O)n4)c3n2)cc1 [Example 14, ((6-(5-fluoro-2-((4-((2-(dimethylamino)ethyl)(methyl)amino)phenyl)amino)-6-cyclopropyl-7H-pyrrolo[2,3-d]pyrimidin-7-yl)pyridin-2-yl)imino)dimethyl-λ^6-sulfanone]
17 | 1.08 |  |  | CN1CCN(c2ccc(Nc3ncc4c(F)c(C5CC5)n(-c5cccc(N=S(C)(C)=O)n5)c4n3)cn2)CC1 [Example 37, ((6-(6-cyclopropyl-5-fluoro-2-((6-(4-methylpiperazin-1-yl)pyridin-3-yl)amino)-7H-pyrrolo[2,3-d]pyrimidin-7-yl)pyridin-2-yl)imino)dimethyl-λ^6-sulfanone]
18 | 0.84 |  |  | CC(C)c1cc2cnc(Nc3ccc(N4CCN(C)CC4)cc3)nc2n1-c1cccc(C(C)(C)O)n1 [Example 141, 2-(6-(6-isopropyl-2-((4-(4-methylpiperazin-1-yl)phenyl)amino)-7H-pyrrolo[2,3-d]pyrimidin-7-yl)pyridin-2-yl)propan-2-ol]
19 | 0.88 |  |  | CCCc1cc2cnc(Nc3ccc(N4CCN(C)CC4)cc3)nc2n1-c1cccc(C(C)(C)O)n1 [Example 2, 2-(6-(2-((4-(4-methylpiperazin-1-yl)phenyl)amino)-6-propyl-7H-pyrrolo[2,3-d]pyrimidin-7-yl)pyridin-2-yl)propan-2-ol]
20 | 1.04 |  |  | CN1CCN(C2CCN(c3ccc(Nc4ncc5cc(C6CC6)n(-c6cccc(N=S(C)(C)=O)n6)c5n4)cc3Cl)CC2)CC1 [Example 54]

Row | Compound | IC50 (WEE1 kinase) [nM] | IC50 ([1]; Homo sapiens, 72 h) [nM] | IC50 [1] [nM]
21 | CS(C)(=O)=Nc1cccc(-n2c(C3CC3)cc3cnc(Nc4ccc(N5CC6CCC(C5)N6)c(F)c4)nc32)n1 [Example 101, ((6-(2-((4-(3,8-diazabicyclo[3.2.1]octan-3-yl)-3-fluorophenyl)amino)-6-cyclopropyl-7H-pyrrolo[2,3-d]pyrimidin-7-yl)pyridin-2-yl)imino)dimethyl-λ^6-sulfanone] | 0.7 | 66 | 
22 | CS(C)(=O)=Nc1cccc(-n2c(C3CC3)c(F)c3cnc(Nc4ccc(C5C[C@H]6CC[C@@H](C5)N6)cc4)nc32)n1 (stereo partly drawn) [Example 63] | 0.85 |  | 

Reference: patent US20220194960A1, “WEE1 INHIBITOR AND PREPARATION AND USE THEREOF” (SHOUYAO HOLDINGS (BEIJING) CO., LTD., priority 2019, published 2022)
